Experimental data from patent US5942508A, “Method for solubilizing pyridonecarboxylic acid solubilizer thereof and aqueous solution containing solubilized pyridonecarboxylic acid” (Senju Pharmaceutical Co., Ltd., priority 1997, dated 1999).
≈ marks a conversion by molar mass, not a printed value.

Assays:
[1] = Effect of arylcarboxylic acid on solubility of pyridonecarboxylic acid - 1 (Table 1); format: physicochemical; conditions: 0.1% aqueous sodium dihydrogenphosphate, 25° C., one week
Experimental: Experimental Example 1: Effect of arylcarboxylic acid on solubility of pyridonecarboxylic acid - 1
(§1) To a 0.1% aqueous sodium dihydrogenphosphate solution (100 ml) containing pranoprofen, ibuprofen or bromfenac was added norfloxacin or enoxacin in excess, and the pH thereof was adjusted to 7-8 with hydrochloric acid or sodium hydroxide. The mixture was shaken for one week at 25° C. and filtered through a 0.45 μm membrane filter, which was followed by the determination of a norfloxacin or enoxacin content by high performance liquid chromatography.

[2] = Effect of arylcarboxylic acid on solubility of pyridonecarboxylic acid - 2 (Table 2); format: physicochemical; conditions: 0.1% aqueous sodium dihydrogenphosphate, 25° C., one week
Experimental: Experimental Example 2: Effect of arylcarboxylic acid on solubility of pyridonecarboxylic acid - 2
as §1, with “2-naphthoic acid, 2-naphthylacetic acid” for “pranoprofen, ibuprofen”, “2-naphthoxyacetic acid” for “bromfenac”, “8-9” for “7-8”

[3] = Increase of solubility by addition of arylcarboxylic acid (Tables 1 to 3); format: physicochemical; conditions: about, addition of at least one arylcarboxylic acid (pranoprofen, ibuprofen, diclofenac, bromfenac, 2-naphthoic, 2-naphthylacetic, 2-naphthoxyacetic acid)
Experimental: as §1
as §1, with “2-naphthoic acid, 2-naphthylacetic acid” for “pranoprofen, ibuprofen”, “2-naphthoxyacetic acid” for “bromfenac”, “8-9” for “7-8”
as §1, with “ibuprofen, diclofenac, bromfenac, 2-naphthoic acid, 2-naphthylacetic acid” for “ibuprofen”, “2-naphthoxyacetic acid” for “bromfenac”, “lomefloxacin” for “norfloxacin or enoxacin”, “8-9” for “7-8”

[4] = physchem
[5] = Effect of arylcarboxylic acid on solubility of pyridonecarboxylic acid - 3 (Table 3); format: physicochemical; conditions: 0.1% aqueous sodium dihydrogenphosphate, 25° C., one week
Experimental: Experimental Example 3: Effect of arylcarboxylic acid on solubility of pyridonecarboxylic acid - 3
as §1, with “ibuprofen, diclofenac, bromfenac, 2-naphthoic acid, 2-naphthylacetic acid” for “ibuprofen”, “2-naphthoxyacetic acid” for “bromfenac”, “lomefloxacin” for “norfloxacin or enoxacin”, “8-9” for “7-8”

[6] = pH 7, bromfenac added, pH 7, 0.1% aqueous sodium dihydrogenphosphate
[7] = pH 7, ibuprofen added, pH 7, 0.1% aqueous sodium dihydrogenphosphate
[8] = pH 7, pranoprofen added, pH 7, 0.1% aqueous sodium dihydrogenphosphate
[9] = pH 7, without addition, pH 7, 0.1% aqueous sodium dihydrogenphosphate
[10] = pH 8, bromfenac added, pH 8, 0.1% aqueous sodium dihydrogenphosphate
[11] = pH 8, ibuprofen added, pH 8, 0.1% aqueous sodium dihydrogenphosphate
[12] = pH 8, pranoprofen added, pH 8, 0.1% aqueous sodium dihydrogenphosphate
[13] = pH 8, without addition, pH 8, 0.1% aqueous sodium dihydrogenphosphate
[14] = pH 8, 2-naphthoic acid added, pH 8, 0.1% aqueous sodium dihydrogenphosphate
[15] = pH 8, 2-naphthoxyacetic acid added, pH 8, 0.1% aqueous sodium dihydrogenphosphate
[16] = pH 8, 2-naphthylacetic acid added, pH 8, 0.1% aqueous sodium dihydrogenphosphate
[17] = pH 9, 2-naphthoic acid added, pH 9, 0.1% aqueous sodium dihydrogenphosphate
[18] = pH 9, 2-naphthoxyacetic acid added, pH 9, 0.1% aqueous sodium dihydrogenphosphate
[19] = pH 9, 2-naphthylacetic acid added, pH 9, 0.1% aqueous sodium dihydrogenphosphate
[20] = pH 9, without addition, pH 9, 0.1% aqueous sodium dihydrogenphosphate

Row | solubility thermodynamic at 168 h [1, 6] | solubility thermodynamic at 168 h [1, 7] | solubility thermodynamic at 168 h [1, 8] | solubility thermodynamic at 168 h [1, 9] | solubility thermodynamic at 168 h [1, 10] | solubility thermodynamic at 168 h [1, 11] | solubility thermodynamic at 168 h [1, 12] | solubility thermodynamic at 168 h [1, 13] | solubility thermodynamic at 168 h [2, 14] | solubility thermodynamic at 168 h [2, 15] | solubility thermodynamic at 168 h [2, 16] | solubility thermodynamic at 168 h [2, 13] | solubility thermodynamic at 168 h [2, 17] | solubility thermodynamic at 168 h [2, 18] | solubility thermodynamic at 168 h [2, 19] | solubility thermodynamic at 168 h [2, 20] | increase of solubility by addition of arylcarboxylic acid [3] | further results | SMILES
1 | 320 µg/mL (≈ 999 µM) | 300 µg/mL (≈ 937 µM) | 780 µg/mL (≈ 2440 µM) | 260 µg/mL (≈ 812 µM) | 350 µg/mL (≈ 1090 µM) | 280 µg/mL (≈ 874 µM) | 630 µg/mL (≈ 1970 µM) | 250 µg/mL (≈ 780 µM) | 540 µg/mL (≈ 1690 µM) | 470 µg/mL (≈ 1470 µM) | 420 µg/mL (≈ 1310 µM) | 250 µg/mL (≈ 780 µM) | 1190 µg/mL (≈ 3710 µM) | 990 µg/mL (≈ 3090 µM) | 830 µg/mL (≈ 2590 µM) | 710 µg/mL (≈ 2220 µM) | 1.5-3 times | solubility ([4]; 0.1% phosphate buffer, pH 7): 280 µg/mL (≈ 874 µM); solubility ([4]; 1.6% borate buffer, pH 6): 1700 µg/mL (≈ 5310 µM) | CCn1cc(C(=O)O)c(=O)c2cc(F)c(N3CCNCC3)nc21 [enoxacin, 1-ethyl-6-fluoro-1,4-dihydro-4-oxo-7-(1-piperazinyl)-1,8-naphthyridine-3-carboxylic acid]
2 | – | – | – | – | – | – | – | – | – | – | – | – | – | – | – | – | 1.5-3 times | solubility thermodynamic at 168 h [5, 14]: 2300 µg/mL (≈ 6550 µM); solubility thermodynamic at 168 h [5, 15]: 2040 µg/mL (≈ 5810 µM); solubility thermodynamic at 168 h [5, 16]: 1800 µg/mL (≈ 5120 µM); solubility thermodynamic at 168 h ([5]; pH 8, diclofenac added, pH 8, 0.1% aqueous sodium dihydrogenphosphate): 1390 µg/mL (≈ 3960 µM); solubility thermodynamic at 168 h [5, 12]: 2140 µg/mL (≈ 6090 µM); solubility thermodynamic at 168 h [5, 13]: 1180 µg/mL (≈ 3360 µM); solubility thermodynamic at 168 h ([5]; pH 9, bromfenac added, pH 9, 0.1% aqueous sodium dihydrogenphosphate): 4700 µg/mL (≈ 13400 µM); solubility thermodynamic at 168 h ([5]; pH 9, diclofenac added, pH 9, 0.1% aqueous sodium dihydrogenphosphate): 3330 µg/mL (≈ 9480 µM); solubility thermodynamic at 168 h ([5]; pH 9, ibuprofen added, pH 9, 0.1% aqueous sodium dihydrogenphosphate): 3500 µg/mL (≈ 9960 µM); solubility thermodynamic at 168 h [5, 20]: 3000 µg/mL (≈ 8540 µM) | CCn1cc(C(=O)O)c(=O)c2cc(F)c(N3CCNC(C)C3)c(F)c21 (stereo not shown) [lomefloxacin, 1-ethyl-6,8-difluoro-1,4-dihydro-7-(3-methyl-1-piperazinyl)-4-oxo-3-quinolinecarboxylic acid]
3 | 410 µg/mL (≈ 1280 µM) | 430 µg/mL (≈ 1350 µM) | 1810 µg/mL (≈ 5670 µM) | 400 µg/mL (≈ 1250 µM) | 540 µg/mL (≈ 1690 µM) | 420 µg/mL (≈ 1320 µM) | 810 µg/mL (≈ 2540 µM) | 360 µg/mL (≈ 1130 µM) | 920 µg/mL (≈ 2880 µM) | 750 µg/mL (≈ 2350 µM) | 580 µg/mL (≈ 1820 µM) | 360 µg/mL (≈ 1130 µM) | 1590 µg/mL (≈ 4980 µM) | 1600 µg/mL (≈ 5010 µM) | 2060 µg/mL (≈ 6450 µM) | 1060 µg/mL (≈ 3320 µM) | 1.5-3 times | solubility ([4]; 0.1% phosphate buffer, pH 8): 360 µg/mL (≈ 1130 µM); solubility ([4]; 1.6% borate buffer, pH 7): 390 µg/mL (≈ 1220 µM) | CCn1cc(C(=O)O)c(=O)c2cc(F)c(N3CCNCC3)cc21 [norfloxacin, 1-ethyl-6-fluoro-1,4-dihydro-4-oxo-7-(1-piperazinyl)-3-quinolinecarboxylic acid]
